{
  "source": "patent US8334261B2",
  "about": "“Osteopenia animal model” (Oriental Yeast Co., Ltd., priority 2006, dated 2012)",
  "assay_type_in_all_cases": "in vivo, mouse",
  "key": {"[1]": {"test_system": "GST-RANKL-administered 7-week-old female C57BL/6 mice", "assay": "Comparison of a plurality of bisphosphonates in GST-RANKL mice", "conditions": "for femur bone density decrease vs PBS group: GST-RANKL 1 mg/kg 3 times", "description": "GST-RANKL was intraperitoneally administered 3 times at 1 mg/kg every 24 hours. The femur, tibia, and serum were collected from each mouse 1.5 hours after the 3rd GST-RANKL administration. Measurement of TRAP-5b, calcium (Ca), and alkaline phosphatase (ALP) in the serum was carried out. Each femur was subjected to bone density measurement with pQCT and image analysis with micro CT."}, "[2]": {"test_system": "7-week-old female C57BL/6N mice", "assay": "Evaluation of a bone mass increase with PTH (GST-RANKL, ovariectomy)", "conditions": "for femur bone density decrease vs PBS+Sham: GST-RANKL+Sham", "description": "GST-RANKL was administered twice to groups of 7-week-old female C57BL/6N mice at 1 mg/kg every 24 hours. Ovariectomy was performed 24 hours after the 2nd administration. In addition, parathyroid hormone (PTH) was subcutaneously administered thereto at 160 μg/kg from 24 hours after the ovariectomy for 10 consecutive days. Further, a group obtained by PBS administration and sham operation (Sham) was designated as a control group for comparison. The serum markers and the femur bone density were measured."}, "female C57BL/6N mice": {"test_system": "female C57BL/6N mice", "assay": "Producing OVX mice in a short period of time (GST-RANKL plus ovariectomy)", "description": "7-week-old female C57BL/6N mice were reared for 25 days. Then, GST-RANKL was intraperitoneally administered twice thereto at 1 mg/kg every 24 hours. Ovariectomy was carried out 24 hours after the 2nd administration. Further, the femur, tibia, and serum were collected from each mouse 24 hours after ovariectomy. The obtained samples were compared with the samples obtained from a group that was reared for 4 weeks after ovariectomy. In addition, PBS was administered to control groups for comparison with GST-RANKL administration groups. The PBS administration groups were subjected to sham operation (Sham) for comparison with the groups subjected to ovariectomy.\nRegarding bone metabolism markers, TRAP-5b, calcium (Ca), and alkaline phosphatase (ALP) in the serum were measured. Each femur was subjected to bone density measurement with pQCT and image analysis with micro CT. After the initiation of rearing, the date of implementation of OVX or sham operation was expressed as “day X.”"}, "[3]": {"test_system": "7-week-old female C57BL/6 mice", "assay": "Administration of GST-RANKL for 7 consecutive days", "description": "GST-RANKL was intraperitoneally administered to groups of 7-week-old female C57BL/6 mice at 2 mg/kg/day for 7 consecutive days. The serum and femur were collected from each mouse 1.5 hours after the 7th administration. The serum and femur obtained from each mouse were subjected to measurement of serum markers and bone density measurement with pQCT, respectively."}, "[4]": {"test_system": "12-week-old male and female C57BL/6N mice", "assay": "GST-RANKL administration to 12-week-old mice", "description": "GST-RANKL was intraperitoneally administered 3 times to 12-week-old male and female C57BL/6N mice at 1 mg/kg every 24 hours. The serum and femur were collected from each mouse 1.5 hours after the 3rd administration. The serum collected from each mouse was subjected to measurement of serum bone resorption markers (Ca and TRAP-5b) and an osteogenesis marker (ALP). Each femur was subjected to bone density measurement by dual energy X-ray absorptiometry (DEXA) and image analysis with micro CT."}, "[5]": {"test_system": "7-week-old female ICR mice", "assay": "Evaluation of mice of the other lineages (ICR)", "description": "GST-RANKL was intraperitoneally administered 3 times to groups of 7-week-old female ICR mice at 1 mg/kg every 24 hours. The femur and serum were collected from each mouse 1.5 hours after the 3rd administration and compared with those of the PBS administration group. Regarding bone metabolism markers, TRAP-5b, calcium (Ca), and alkaline phosphatase (ALP) in the serum were measured. Each femur was subjected to bone density measurement with pQCT and image analysis with micro CT."}, "[6]": {"test_system": "7-week-old female C57BL/6N mice", "assay": "RANKL administration test (213, 426, 852 nmol GST-RANKL)", "description": "GST-RANKL was separately administered 3 times via an intraperitoneal route to groups of 7-week-old female C57BL/6N mice (10 individuals each) at doses of 213 nmol, 426 nmol, and 852 nmol every 24 hours. Exsanguination was performed 1.5 hours after the 3rd administration. A group to which PBS was administered in the same manner as above was used as a control group for comparison. 213 nmol, 426 nmol and 852 nmol of GST-RANKL correspond to 10 μg, 20 μg and 40 μg, respectively.\nThe exsanguinated blood was subjected to measurement of serum bone resorption parameters (calcium, CTx, TRAP-5b) and serum osteogenesis parameters (osteocalcin and alkaline phosphatase (ALP)). Calcium was measured by the OCPC method (WAKO, 272-21801). CTx (Nordic Bioscience Diagnostics), TRAP-5b (IDS Ltd, SB-TR103), and osteocalcin (Biomedical Technologies Inc.) were measured by ELISA. ALP was measured by the Bessey-Lowry method (WAKO, 274-04401).\nThe femur and the tibia were collected from each exsanguinated mouse. Regarding the femur, the cancellous bone was subjected to bone density measurement with the use of pQCT at points 0.6 mm, 0.8 mm, and 1.0 mm from the distal growth plate on the proximal side. Measurement values were compared with those for a control group by the Dunnett method for testing."}, "[7]": {"conditions": "12-week-old male, no significant difference"}},
  "data": [
    {"substance": "GST-RANKL: fused protein of Glutathione S-transferase with human RANKL residues 140-317, expressed in Escherichia coli, 47.0 kDa", "values": [
      {"measurement": "femur bone density decrease vs PBS group", "setting": "[1]; 0.6 mm", "result": 7, "unit": "%"},
      {"measurement": "femur bone density decrease vs PBS group", "setting": "[1]; 0.8 mm", "result": 13, "unit": "%"},
      {"measurement": "femur bone density decrease vs PBS group", "setting": "[1]; 1.0 mm", "result": 18, "unit": "%"},
      {"measurement": "serum TRAP-5b concentration increase", "setting": "[1]; GST-RANKL 1 mg/kg i.p. 3 times, no significant difference", "result": "approximately 40%"},
      {"measurement": "femur bone density vs PBS+Sham", "setting": "[2]; GST-RANKL+OVX group", "result": "No bone density decrease was observed"},
      {"measurement": "femur bone density decrease vs PBS+Sham", "setting": "[2]; 0.6 mm", "result": "approximately 17%"},
      {"measurement": "femur bone density decrease vs PBS+Sham", "setting": "[2]; 0.8 mm", "result": "~15", "unit": "%"},
      {"measurement": "femur bone density decrease vs PBS+Sham", "setting": "[2]; 1.0 mm", "result": "~18", "unit": "%"},
      {"measurement": "serum Ca concentration", "setting": "[2]; every GST-RANKL administration group", "result": "no changes"},
      {"measurement": "serum ALP concentration decrease", "setting": "[2]; every GST-RANKL administration group, 1 mg/kg twice", "result": "approximately 24%"},
      {"measurement": "serum ALP concentration increase vs PBS+Sham (day 27) group", "setting": "female C57BL/6N mice; GST-RANKL administration OVX (day 27) group", "result": "approximately 40%"},
      {"measurement": "femur bone density decrease vs PBS+Sham (day 27)", "setting": "female C57BL/6N mice; GST-RANKL+OVX (day 27), 0.6 mm", "result": "approximately 4%"},
      {"measurement": "femur bone density decrease vs PBS+Sham (day 27)", "setting": "female C57BL/6N mice; GST-RANKL+OVX (day 27), 0.8 mm", "result": "approximately 13%"},
      {"measurement": "femur bone density decrease vs PBS+Sham (day 27)", "setting": "female C57BL/6N mice; GST-RANKL+OVX (day 27), 1.0 mm", "result": "approximately 15%"},
      {"measurement": "femur bone density decrease vs PBS+Sham (day 27)", "setting": "female C57BL/6N mice; GST-RANKL+Sham (day 27), 0.6 mm", "result": "approximately 7%"},
      {"measurement": "femur bone density decrease vs PBS+Sham (day 27)", "setting": "female C57BL/6N mice; GST-RANKL+Sham (day 27), 0.8 mm", "result": "approximately 14%"},
      {"measurement": "femur bone density decrease vs PBS+Sham (day 27)", "setting": "female C57BL/6N mice; GST-RANKL+Sham (day 27), 1.0 mm", "result": "approximately 16%"},
      {"measurement": "serum TRAP-5b concentration, fold as high as PBS+Sham (day 27) group", "setting": "female C57BL/6N mice; every GST-RANKL administration group, 1 mg/kg i.p. twice, no significant difference", "result": "approximately 1.8 fold"},
      {"measurement": "femur bone density decrease vs control", "setting": "[3]; 2 mg/kg/day 7 days, 0.6 mm", "result": "approximately 21%"},
      {"measurement": "femur bone density decrease vs control", "setting": "[3]; 2 mg/kg/day 7 days, 0.8 mm", "result": "approximately 32%"},
      {"measurement": "femur bone density decrease vs control", "setting": "[3]; 2 mg/kg/day 7 days, 1.0 mm", "result": "approximately 47%"},
      {"measurement": "serum TRAP-5b concentration increase", "setting": "[3]; 2 mg/kg/day 7 days, no significant difference", "result": "approximately 30%"},
      {"measurement": "serum ALP concentration increase", "setting": "[3]; 2 mg/kg/day 7 days, p<0.02", "result": "approximately 30%"},
      {"measurement": "serum Ca concentration increase", "setting": "[3]; 2 mg/kg/day i.p. 7 consecutive days, no significant difference", "result": "approximately 20%"},
      {"measurement": "total bone density decrease (DEXA) vs control", "setting": "[4]; 12-week-old female", "result": 6, "unit": "%"},
      {"measurement": "serum ALP concentration vs PBS group", "setting": "[4]; 12-week-old female, no significant difference", "result": "tended to increase"},
      {"measurement": "serum TRAP-5b concentration vs PBS group", "setting": "[4]; 12-week-old female, p<0.01", "result": "significantly increased"},
      {"measurement": "serum Ca concentration vs PBS group", "setting": "[4]; 12-week-old female, p<0.05", "result": "significantly increased"},
      {"measurement": "total bone density decrease (DEXA) vs control", "setting": "[4]; 12-week-old male", "result": 8, "unit": "%"},
      {"measurement": "serum TRAP-5b concentration vs PBS group", "setting": "[4]; 12-week-old male, 1 mg/kg i.p. 3 times, p<0.05", "result": "significantly increased"},
      {"measurement": "serum ALP concentration vs PBS group", "setting": "[4]; [7]", "result": "tended to increase"},
      {"measurement": "serum Ca concentration vs PBS group", "setting": "[4]; [7]", "result": "tended to increase"},
      {"measurement": "serum ALP concentration", "setting": "[5]; 1 mg/kg i.p. 3 times", "result": "no changes"},
      {"measurement": "serum Ca concentration vs control", "setting": "[5]; 1 mg/kg i.p. 3 times", "result": "no changes"},
      {"measurement": "serum TRAP-5b concentration, fold as high as PBS group", "setting": "[5]; 1 mg/kg i.p. 3 times", "result": 1.8, "unit": "fold"},
      {"measurement": "femur bone density decrease vs control", "setting": "[5]; 1.0 mm", "result": "approximately 20%"},
      {"measurement": "femur bone density decrease vs control", "setting": "[5]; 1.2 mm", "result": "approximately 20%"},
      {"measurement": "femur bone density decrease vs control", "setting": "[5]; 1.4 mm", "result": "approximately 22%"},
      {"measurement": "serum CTx concentration", "setting": "[6]; 213 nmol", "result": "No significant increases"},
      {"measurement": "serum TRAP-5b concentration", "setting": "[6]; 213 nmol", "result": "No significant increases"},
      {"measurement": "serum calcium concentration", "setting": "[6]; 213 nmol i.p. 3 times, p<0.05", "result": "significantly increased"},
      {"measurement": "femur bone density decrease (pQCT)", "setting": "[6]; 213 nmol, 0.6 mm", "result": 11, "unit": "%"},
      {"measurement": "femur bone density decrease (pQCT)", "setting": "[6]; 213 nmol, 0.8 mm", "result": 23, "unit": "%"},
      {"measurement": "femur bone density decrease (pQCT)", "setting": "[6]; 213 nmol, 1.0 mm", "result": 23, "unit": "%"},
      {"measurement": "femur bone density decrease (pQCT)", "setting": "[6]; 426 nmol, 0.6 mm", "result": 19, "unit": "%"},
      {"measurement": "femur bone density decrease (pQCT)", "setting": "[6]; 426 nmol, 0.8 mm", "result": 29, "unit": "%"},
      {"measurement": "femur bone density decrease (pQCT)", "setting": "[6]; 426 nmol, 1.0 mm", "result": 31, "unit": "%"},
      {"measurement": "serum CTx concentration", "setting": "[6]; 426 nmol, p<0.01", "result": "significant increases"},
      {"measurement": "serum TRAP-5b concentration", "setting": "[6]; 426 nmol, p<0.01", "result": "significant increases"},
      {"measurement": "serum calcium concentration", "setting": "[6]; 426 nmol, p<0.01", "result": "obviously increased"},
      {"measurement": "femur bone density decrease (pQCT)", "setting": "[6]; 852 nmol, 0.6 mm", "result": 30, "unit": "%"},
      {"measurement": "femur bone density decrease (pQCT)", "setting": "[6]; 852 nmol, 0.8 mm", "result": 42, "unit": "%"},
      {"measurement": "femur bone density decrease (pQCT)", "setting": "[6]; 852 nmol, 1.0 mm", "result": 44, "unit": "%"},
      {"measurement": "serum CTx concentration", "setting": "[6]; 852 nmol, p<0.01", "result": "significant increases"},
      {"measurement": "serum TRAP-5b concentration", "setting": "[6]; 852 nmol, p<0.01", "result": "significant increases"},
      {"measurement": "serum calcium concentration", "setting": "[6]; 852 nmol, p<0.01", "result": "obviously increased"},
      {"measurement": "image analysis with micro CT", "setting": "[6]; 213 to 852 nmol", "result": "dose-dependent decreases in the bone density"}
    ]}
  ]
}
